Measured values taken from patent US12065416B2, “cGAS antagonist compounds” (IMMUNESENSOR THERAPEUTICS, INC., priority 2016, dated 2024).

How the values were obtained:
[1] = molecular target: T1, recombinant cGAS (aa147-522) (Homo sapiens, UniProt Q8N884); assay: In vitro assay for inhibition of cGAS activity (ATP consumption, Kinase Glo); assay type: biochemical; details: 37° C. 20 minutes, read-out: Activity (Inhibition of cGAS enzyme activity in vitro, IC50)
T1 construct: recombinant cGAS (aa147-522); His6-SUMO (N, cleaved yes); made in house; host or cells: E. coli BL21/pLys
Experimental: cDNA encoding full-length or amino acids 147-520 of human cGAS is inserted into a modified pET28a vector containing an in-frame His6-SUMO tag. The E. coli strain BL21/pLys harboring the plasmid is induced with 0.5 mM IPTG at 18° C. overnight. His6-SUMO tag was removed by a SUMO proease following purification of the HiS-SUMO-cGAS as described previously (Sun et al, 2013, Science 339, 786).
A40 μL mixture containing 1.5 ng/μL of recombinant cGAS (aa147-522) and serial dilutions of a test compound or DMSO was added to a 96-well plate and incubated at 37° C. for 20 minutes. At the end of reaction, 20 μL of Kinase Glo (Promega) was added and chemiluminescence measured with a luminometer. Inhibitory effect of a compound is evaluated by plotting percentage of ATP consumption against logarithm of compound concentrations. IC50 value was calculated using Graphpad (Sigma).

[2] = test system: cGAS activity in THP1 cells; assay: Cellular assay: ISRE-Gaussia luciferase reporter THP1 cells transfected with ISD (Interferon Stimulatory DNA); assay type: cell-based; details: Homo sapiens, THP-1; ISRE-Gaussia luciferase reporter THP1 cells transfected with 2 μg/mL ISD, 16 hours; read-out: THP1-ISD (Inhibition of cGAS activity in THP1 cells, IC50)
Experimental: A reporter THP1 cell line harboring a gene encoding Gaussia Luciferase under the control of 5 tandem repeats of interferon-stimulated response elements (ISRE) was used to test inhibition of cGAS activity by synthetic compounds in human cells. These cells were plated on 96-well plates at 0.3×10^6/well and incubated with various concentrations of compounds or DMSO for 5 min, followed by transfection of 2 μg/mL of ISD (Interferon Stimulatory DNA, a 45 bp DNA oligo) or mock transfected using lipofectamine 2000 (Life Technology) method, according to manufacturer's instructions. 16 hours later, 15 μL of the media from each well is transferred to a new plate, 50 μL of solution containing 50 mM Hepes-NaOH, 50 mM NaCl, 10 mM EDTA, 1 μM of coeleanterazine was added to each well and luminescence was measured immediately. Fold increase in luminescence compared to mock transfection is plotted against concentrations of each compound, and IC50 is calculated using Graphpad. To evaluate the specificity of a compound, the same procedure was performed except that cells were transfected with 2 μg/mL poly(I:C) or infected with Sendai Virus (SeV) at 50 Unit/mL, which are known to activate the RIG-I-MAVS pathway. A specific inhibitory compound should inhibit interferon induction by DNA but have minimal effect on poly(I:C) or Sendai virus induced interferon reporter gene expression.

T1 sequence (Q8N884 147-522): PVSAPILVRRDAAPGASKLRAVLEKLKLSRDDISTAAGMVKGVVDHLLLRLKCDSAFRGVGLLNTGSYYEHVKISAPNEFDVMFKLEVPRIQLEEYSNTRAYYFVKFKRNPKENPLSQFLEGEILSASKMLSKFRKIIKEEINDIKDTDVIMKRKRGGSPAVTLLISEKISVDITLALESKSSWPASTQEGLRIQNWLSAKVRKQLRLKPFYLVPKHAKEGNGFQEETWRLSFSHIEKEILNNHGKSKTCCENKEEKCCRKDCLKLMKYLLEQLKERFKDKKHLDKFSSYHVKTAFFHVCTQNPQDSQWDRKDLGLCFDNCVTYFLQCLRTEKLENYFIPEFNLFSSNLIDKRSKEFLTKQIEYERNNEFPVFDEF

Compound: CN1C(=O)S/C(=C\c2cc(O)c(O)cc2Br)C1=O [Ex11]
- IC50 [1]: ≥ 10 µM
- IC50 [2]: 2.5 to 10 µM

Compound: COc1cc(/C=c2\sc3nccn3c2=O)c(Br)cc1O [Ex16]
- IC50 [1]: ≤ 0.5 µM
- IC50 [2]: 2.5 to 10 µM

Compound: COc1cc(/C=C2\SC(=O)N(C)C2=O)c(Br)cc1NS(=O)(=O)c1ccccn1 [Ex21]
- IC50 [1]: ≥ 10 µM
- IC50 [2]: 2.5 to 10 µM

Compound: COc1cc(/C=C2\SC(=O)N(C)C2=O)c(Cl)cc1O [Ex30]
- IC50 [1]: ≤ 0.5 µM
- IC50 [2]: ≤ 2.5 µM

Compound: CCOc1cc(/C=C2\SC(=O)N(C)C2=O)c(Br)cc1O [Ex32]
- IC50 [1]: ≤ 0.5 µM
- IC50 [2]: ≤ 2.5 µM

Compound: C#CCOc1cc(/C=C2\SC(=O)N(C)C2=O)c(Br)cc1O [Ex33]
- IC50 [1]: 0.5 to 10 µM
- IC50 [2]: 2.5 to 10 µM

Compound: COc1cc(/C=C2\SC(=S)N(C)C2=O)c(Br)cc1O [Ex38]
- IC50 [1]: ≤ 0.5 µM
- IC50 [2]: 2.5 to 10 µM

Compound: CCN1C(=O)S/C(=C\c2cc(OC)c(O)cc2Br)C1=O [Ex39]
- IC50 [1]: 0.5 to 10 µM
- IC50 [2]: 2.5 to 10 µM

Compound: CN1C(=O)S/C(=C\c2cc(OCc3cnc([S+](C)[O-])nc3Cl)c(O)cc2Br)C1=O (centres unmarked) [Ex214]
- IC50 [1]: 0.5 to 10 µM

Compound: Cc1nc([S+](C)[O-])nc(C)c1COc1cc(/C=C2\SC(=O)N(C)C2=O)c(Br)cc1O (centres unmarked) [Ex215]
- IC50 [1]: 0.5 to 10 µM

Compound: CN1C(=O)S/C(=C\c2cc(OCc3cnc(O)nc3)c(O)cc2Br)C1=O [Ex217]
- IC50 [1]: 0.5 to 10 µM

Compound: CN1C(=O)S/C(=C\c2cc(OCc3cncnc3O)c(O)cc2Br)C1=O [Ex218]
- IC50 [1]: ≤ 0.5 µM

Compound: CN1C(=O)S/C(=C\c2cc(OCc3cnc(S)nc3)c(O)cc2Br)C1=O [Ex219]
- IC50 [1]: 0.5 to 10 µM

Compound: COc1nc(S(C)(=O)=O)ncc1COc1cc(/C=C2\SC(=O)N(C)C2=O)c(Br)cc1O [Ex220]
- IC50 [1]: 0.5 to 10 µM

Compound: CN1C(=O)S/C(=C\c2cc(OCc3cnc(S(C)(=O)=O)nc3Cl)c(O)cc2Br)C1=O [Ex221]
- IC50 [1]: 0.5 to 10 µM

Compound: COc1nc(N)ncc1COc1cc(/C=C2\SC(=O)N(C)C2=O)c(Br)cc1O [Ex222]
- IC50 [1]: 0.5 to 10 µM

Compound: Cc1nc(N)nc(C)c1COc1cc(/C=C2\SC(=O)N(C)C2=O)c(Br)cc1O [Ex223]
- IC50 [1]: 0.5 to 10 µM

Compound: CN1C(=O)S/C(=C\c2cc(OCc3cncc(NC(=O)c4cccnc4)c3)c(O)cc2Br)C1=O [Ex224]
- IC50 [1]: 0.5 to 10 µM

Compound: CN1C(=O)S/C(=C\c2cc(OCc3cncc(NC(=O)c4ccncc4)c3)c(O)cc2Br)C1=O [Ex225]
- IC50 [1]: ≥ 10 µM

Compound: CC(C)C(=O)Nc1cncc(COc2cc(/C=C3\SC(=O)N(C)C3=O)c(Br)cc2O)c1 [Ex226]
- IC50 [1]: ≥ 10 µM

Compound: CN1C(=O)S/C(=C\c2cc(OCc3cncc(NCc4ccccn4)c3)c(O)cc2Br)C1=O [Ex227]
- IC50 [1]: ≥ 10 µM

Compound: CN1C(=O)S/C(=C\c2cc(OCc3cncc(NCc4ccncc4)c3)c(O)cc2Br)C1=O [Ex228]
- IC50 [1]: ≥ 10 µM

Compound: CC(C)CNc1cncc(COc2cc(/C=C3\SC(=O)N(C)C3=O)c(Br)cc2O)c1 [Ex229]
- IC50 [1]: ≥ 10 µM

Compound: CN1C(=O)S/C(=C\c2cc(Oc3ccncc3)c(O)cc2Br)C1=O [Ex230]
- IC50 [1]: ≥ 10 µM

Compound: CN1C(=O)S/C(=C\c2cc(Oc3ccc(=O)[nH]c3)c(O)cc2Br)C1=O [Ex231]
- IC50 [1]: 0.5 to 10 µM

Compound: CN1C(=O)S/C(=C\c2cc(OCc3cn(-c4ccccc4)nn3)c(O)cc2Br)C1=O [Ex232]
- IC50 [1]: ≥ 10 µM

Compound: Cc1nc(N)ncc1COc1cc(/C=C2\Sc3ncccc3C2=O)c(Br)c(F)c1O [ExA8]
- IC50 [1]: ≤ 0.5 µM

Compound: CSc1nc([S+](C)[O-])ncc1COc1cc(/C=C2\Sc3ncccc3C2=O)c(Br)c(F)c1O (centres unmarked) [ExA16]
- IC50 [1]: ≤ 0.5 µM

Compound: CN1C(=O)S/C(=C\c2cc(OCC(F)(F)c3cnc(N)nc3)c(O)c(F)c2Br)C1=O [ExA20]
- IC50 [1]: 0.5 to 10 µM

Compound: CN1C(=O)S/C(=C\c2cc(OCC(=O)Nc3nncs3)c(O)c(F)c2Br)C1=O [ExB1]
- IC50 [1]: 0.5 to 10 µM

Compound: CN1C(=O)S/C(=C\c2cc(Oc3cccc4ncccc34)c(O)cc2Br)C1=O [ExB5]
- IC50 [1]: ≥ 10 µM

Compound: CN1C(=O)S/C(=C\c2cc(OCC3(c4cnc(N)nc4)CC3)c(O)c(F)c2Br)C1=O [ExB6]
- IC50 [1]: 0.5 to 10 µM

Compound: CC(=O)c1cc(N)ccc1Oc1cc(/C=C2\SC(=O)N(C)C2=O)c(Br)c(F)c1O [ExB7]
- IC50 [1]: ≥ 10 µM

Compound: CC(Cc1cnc(N)nc1)Oc1cc(/C=C2\SC(=O)N(C)C2=O)c(Br)c(F)c1O (centres unmarked) [ExB9]
- IC50 [1]: 0.5 to 10 µM

Compound: CC(Oc1cc(/C=C2\SC(=O)N(C)C2=O)c(Br)c(F)c1Oc1cnc(N)s1)c1cnc(N)nc1 (centres unmarked) [ExB10]
- IC50 [1]: 0.5 to 10 µM

Compound: COc1cccc(Oc2cc(/C=C3\SC(=O)N(C)C3=O)c(Br)cc2O)c1N [ExB11]
- IC50 [1]: ≥ 10 µM

Compound: CN1C(=O)S/C(=C\c2cc(Oc3cccc(O)c3N)c(O)cc2Br)C1=O [ExB12]
- IC50 [1]: ≥ 10 µM

Compound: Cc1nc2c(Oc3cc(/C=C4\SC(=O)N(C)C4=O)c(Br)cc3O)cccc2o1 [ExB13]
- IC50 [1]: 0.5 to 10 µM

Compound: CN1C(=O)S/C(=C\c2cc3c(-c4ccc(N)cc4)c[nH]c3cc2Br)C1=O [ExB14]
- IC50 [1]: 0.5 to 10 µM

Compound: CSc1ccc(CCc2cc(/C=C3\SC(=O)N(C)C3=O)c(Br)cc2O)cc1 [ExB15]
- IC50 [1]: 0.5 to 10 µM

Compound: CN1C(=O)S/C(=C\c2cc(C(F)(F)F)c(O)cc2Br)C1=O [ExB16]
- IC50 [1]: ≤ 0.5 µM

Compound: O=C1/C(=C/c2cc(C(F)(F)F)c(O)cc2Br)Sc2ncccc21 [ExB17]
- IC50 [1]: ≤ 0.5 µM

Compound: CC(C)c1cc(/C=C2\SC(=O)N(C)C2=O)c(Br)cc1O [ExB18]
- IC50 [1]: ≥ 10 µM

Compound: CC(C)c1cc(/C=C2\Sc3ncccc3C2=O)c(Br)cc1O [ExB19]
- IC50 [1]: ≥ 10 µM

Compound: CN1C(=O)S/C(=C\c2cc(CC(F)(F)F)c(O)cc2Br)C1=O [ExB20]
- IC50 [1]: 0.5 to 10 µM

Compound: C/N=C1/S/C(=C\c2cc(OC)c(O)cc2Br)C(=O)N1C [ExB22]
- IC50 [1]: ≥ 10 µM

Compound: CC/N=C1/S/C(=C\c2cc(OC)c(O)cc2Br)C(=O)N1C [ExB23]
- IC50 [1]: ≥ 10 µM

Compound: CCC/N=C1/S/C(=C\c2cc(OC)c(O)cc2Br)C(=O)N1C [ExB24]
- IC50 [1]: ≥ 10 µM

Compound: CN1C(=O)S/C(=C\c2cc(Oc3cccc4cnccc34)c(O)cc2Br)C1=O [ExB25]
- IC50 [1]: ≥ 10 µM

Compound: CN1C(=O)S/C(=C\c2cc(Oc3ccc(-c4ccccn4)cc3)c(O)cc2Br)C1=O [ExB26]
- IC50 [1]: ≥ 10 µM

Compound: CN1C(=O)S/C(=C\c2cc(Oc3cccc4c3COCC4)c(O)cc2Br)C1=O [ExB27]
- IC50 [1]: ≥ 10 µM

Compound: CN1C(=O)S/C(=C\c2cc(Oc3ccc(-c4cccnc4)cc3)c(O)cc2Br)C1=O [ExB28]
- IC50 [1]: ≥ 10 µM

Compound: [2H]C(C)(Oc1cc(/C=C2\SC(=O)N(C)C2=O)c(Br)c(F)c1O)c1cnc(N)nc1 (centres unmarked) [ExB29]
- IC50 [1]: ≤ 0.5 µM

Compound: CN1C(=O)S/C(=C\c2cc(Oc3cnc(N)s3)c(O)c(F)c2Br)C1=O [ExB30]
- IC50 [1]: 0.5 to 10 µM

Compound: CCC(Oc1cc(/C=C2\SC(=O)N(C)C2=O)c(Br)c(F)c1O)c1cnc(Cl)nc1 (centres unmarked) [ExB31]
- IC50 [1]: 0.5 to 10 µM

Compound: CN1C(=O)S/C(=C\c2cc(OCCc3cnc(N)nc3N)c(O)c(F)c2Br)C1=O [ExB32]
- IC50 [1]: ≤ 0.5 µM

Compound: CN1C(=O)S/C(=C\c2cc(OC(F)(F)F)c(Oc3cnc(N)s3)cc2Br)C1=O [ExB33]
- IC50 [1]: ≥ 10 µM

Compound: CC(=O)c1cc(/C=C2\SC(=O)N(C)C2=O)c(Br)cc1Oc1cnc(N)s1 [ExB34]
- IC50 [1]: ≥ 10 µM

Compound: CSc1ncncc1C(=O)C(C)Oc1cc(/C=C2\SC(=O)N(C)C2=O)c(Br)c(F)c1O (centres unmarked) [ExB36]
- IC50 [1]: ≥ 10 µM

Compound: CC(Oc1cc(/C=C2\SC(=O)N(C)C2=O)c(Br)c(F)c1O)C(O)c1cncnc1N (centres unmarked) [ExB37]
- IC50 [1]: ≤ 0.5 µM

Compound: CN1C(=O)S/C(=C\c2cc(CCc3ccc([S+](C)[O-])cc3)c(O)cc2Br)C1=O (centres unmarked) [ExB38]
- IC50 [1]: ≥ 10 µM

Compound: CN1C(=O)S/C(=C\c2cc(CCc3cnc(N)nc3)c(O)cc2Br)C1=O [ExB41]
- IC50 [1]: 0.5 to 10 µM

Compound: Nc1ncc(/C=C/c2cc(/C=C3\Sc4ncccc4C3=O)c(Br)cc2O)cn1 [ExB42]
- IC50 [1]: ≤ 0.5 µM
